From ChEMBL document CHEMBL3627608, “Crystal structures of human RIP2 kinase catalytic domain complexed with ATP-competitive inhibitors: Foundations for understanding inhibitor selectivity” (Bioorg Med Chem, 2015)

How the values were obtained:
[1] = biological target: T1, Serine/threonine-protein kinase Sgk1 (Homo sapiens) (UniProt O00141); assay: Inhibition of SGK1 (unknown origin) at 10 uM after 120 mins P33 radiolabeled kinase activity assay
T1 sequence (whole entry): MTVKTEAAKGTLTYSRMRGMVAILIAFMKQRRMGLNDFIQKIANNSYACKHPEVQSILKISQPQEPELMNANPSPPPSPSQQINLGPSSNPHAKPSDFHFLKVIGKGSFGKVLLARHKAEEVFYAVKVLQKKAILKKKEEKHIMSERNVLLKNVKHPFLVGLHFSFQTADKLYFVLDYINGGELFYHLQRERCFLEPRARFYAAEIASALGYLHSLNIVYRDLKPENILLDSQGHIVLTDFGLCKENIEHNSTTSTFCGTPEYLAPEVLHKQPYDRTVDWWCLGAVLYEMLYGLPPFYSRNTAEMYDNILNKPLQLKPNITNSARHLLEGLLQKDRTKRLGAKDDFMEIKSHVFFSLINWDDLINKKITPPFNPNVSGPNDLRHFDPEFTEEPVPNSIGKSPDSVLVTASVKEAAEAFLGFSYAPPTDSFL

[2] = biological target: Dual specificity protein kinase CLK1 (Homo sapiens) (UniProt P49759); assay: Inhibition of CLK1 (unknown origin) at 10 uM after 120 mins P33 radiolabeled kinase activity assay
Sequence of Dual specificity protein kinase CLK1 (Homo sapiens) (P49759 whole entry, looked up): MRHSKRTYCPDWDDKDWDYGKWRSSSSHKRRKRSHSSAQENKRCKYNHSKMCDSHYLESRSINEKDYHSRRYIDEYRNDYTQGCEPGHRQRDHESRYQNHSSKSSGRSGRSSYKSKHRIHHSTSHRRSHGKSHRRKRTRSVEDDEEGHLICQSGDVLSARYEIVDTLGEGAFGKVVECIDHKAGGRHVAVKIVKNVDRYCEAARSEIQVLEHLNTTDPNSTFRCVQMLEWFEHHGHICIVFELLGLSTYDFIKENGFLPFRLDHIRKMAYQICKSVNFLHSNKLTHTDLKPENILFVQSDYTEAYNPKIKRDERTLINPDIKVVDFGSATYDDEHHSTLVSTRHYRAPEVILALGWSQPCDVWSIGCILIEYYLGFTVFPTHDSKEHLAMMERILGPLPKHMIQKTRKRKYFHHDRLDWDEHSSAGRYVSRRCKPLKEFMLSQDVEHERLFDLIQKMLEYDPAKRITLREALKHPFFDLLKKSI

[3] = biological target: T2, Aurora kinase C (Homo sapiens) (UniProt Q9UQB9); assay: Inhibition of Aurora C (unknown origin) at 10 uM after 120 mins P33 radiolabeled kinase activity assay
T2 sequence (whole entry): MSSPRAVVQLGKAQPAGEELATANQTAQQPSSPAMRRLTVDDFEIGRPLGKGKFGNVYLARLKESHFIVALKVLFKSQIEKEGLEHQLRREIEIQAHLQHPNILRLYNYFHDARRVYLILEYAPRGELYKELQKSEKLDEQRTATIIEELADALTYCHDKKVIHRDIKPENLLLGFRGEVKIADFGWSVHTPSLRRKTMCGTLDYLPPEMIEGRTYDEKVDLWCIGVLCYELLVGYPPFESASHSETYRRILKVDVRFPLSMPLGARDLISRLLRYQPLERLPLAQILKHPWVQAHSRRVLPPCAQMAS

[4] = biological target: T3, Ephrin type-A receptor 8 (Homo sapiens) (UniProt P29322); assay: Inhibition of EPHA8 (unknown origin) at 10 uM after 120 mins P33 radiolabeled kinase activity assay
T3 sequence (whole entry): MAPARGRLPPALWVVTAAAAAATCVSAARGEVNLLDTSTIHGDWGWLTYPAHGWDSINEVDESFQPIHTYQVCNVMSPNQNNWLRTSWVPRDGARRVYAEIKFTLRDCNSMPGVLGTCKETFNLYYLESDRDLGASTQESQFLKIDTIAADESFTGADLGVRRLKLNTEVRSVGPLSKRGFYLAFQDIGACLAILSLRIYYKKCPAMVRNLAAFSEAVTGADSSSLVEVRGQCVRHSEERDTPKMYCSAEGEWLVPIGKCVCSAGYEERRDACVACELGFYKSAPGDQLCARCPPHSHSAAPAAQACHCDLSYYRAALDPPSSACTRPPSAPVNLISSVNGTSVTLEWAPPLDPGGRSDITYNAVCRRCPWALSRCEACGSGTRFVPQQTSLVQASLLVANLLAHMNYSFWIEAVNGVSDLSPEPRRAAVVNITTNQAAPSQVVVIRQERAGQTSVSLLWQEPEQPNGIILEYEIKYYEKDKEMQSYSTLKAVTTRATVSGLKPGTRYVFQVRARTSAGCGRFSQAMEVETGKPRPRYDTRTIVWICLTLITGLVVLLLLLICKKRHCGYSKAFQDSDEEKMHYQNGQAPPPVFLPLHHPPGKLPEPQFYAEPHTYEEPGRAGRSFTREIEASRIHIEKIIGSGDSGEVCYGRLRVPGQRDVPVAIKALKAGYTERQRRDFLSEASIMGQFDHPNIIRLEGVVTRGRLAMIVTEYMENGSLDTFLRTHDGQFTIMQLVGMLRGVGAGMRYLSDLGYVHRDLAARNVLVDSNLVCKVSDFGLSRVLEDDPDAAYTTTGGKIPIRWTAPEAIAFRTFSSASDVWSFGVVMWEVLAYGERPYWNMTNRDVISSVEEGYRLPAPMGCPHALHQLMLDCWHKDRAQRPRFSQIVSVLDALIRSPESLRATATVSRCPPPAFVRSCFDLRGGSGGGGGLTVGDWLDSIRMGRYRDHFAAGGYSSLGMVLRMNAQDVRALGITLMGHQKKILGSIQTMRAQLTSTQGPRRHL

[5] = biological target: Serine/threonine-protein kinase 10 (Homo sapiens) (UniProt O94804); assay: Inhibition of LOK (unknown origin) at 10 uM after 120 mins P33 radiolabeled kinase activity assay
Sequence of Serine/threonine-protein kinase 10 (Homo sapiens) (O94804 whole entry, looked up): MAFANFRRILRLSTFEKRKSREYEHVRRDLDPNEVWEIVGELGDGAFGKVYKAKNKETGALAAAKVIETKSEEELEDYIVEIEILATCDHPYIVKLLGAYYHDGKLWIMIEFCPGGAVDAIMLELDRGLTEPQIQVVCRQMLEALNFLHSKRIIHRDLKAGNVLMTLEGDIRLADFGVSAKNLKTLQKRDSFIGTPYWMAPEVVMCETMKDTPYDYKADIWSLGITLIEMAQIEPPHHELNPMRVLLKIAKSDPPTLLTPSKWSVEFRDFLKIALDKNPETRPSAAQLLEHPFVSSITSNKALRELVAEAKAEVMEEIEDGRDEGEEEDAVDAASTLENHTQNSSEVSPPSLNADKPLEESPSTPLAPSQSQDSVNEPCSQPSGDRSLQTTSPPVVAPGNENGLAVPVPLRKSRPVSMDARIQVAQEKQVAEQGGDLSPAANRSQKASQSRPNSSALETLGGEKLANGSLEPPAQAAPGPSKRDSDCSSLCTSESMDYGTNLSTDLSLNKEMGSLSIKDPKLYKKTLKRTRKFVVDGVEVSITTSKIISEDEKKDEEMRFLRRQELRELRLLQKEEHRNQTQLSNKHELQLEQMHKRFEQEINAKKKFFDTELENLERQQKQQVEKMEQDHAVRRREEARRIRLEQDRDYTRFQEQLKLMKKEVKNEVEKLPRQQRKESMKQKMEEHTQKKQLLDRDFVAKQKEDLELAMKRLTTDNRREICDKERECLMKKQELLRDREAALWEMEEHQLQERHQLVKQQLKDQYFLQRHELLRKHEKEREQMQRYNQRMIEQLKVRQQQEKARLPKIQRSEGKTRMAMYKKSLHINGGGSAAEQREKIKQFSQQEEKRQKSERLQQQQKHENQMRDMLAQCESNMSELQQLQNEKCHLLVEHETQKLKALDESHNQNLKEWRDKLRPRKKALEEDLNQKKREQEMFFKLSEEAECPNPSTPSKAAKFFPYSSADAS

[6] = biological target: Tyrosine-protein kinase Fyn (Homo sapiens) (UniProt P06241); assay: Inhibition of FYN (unknown origin) at 10 uM after 120 mins P33 radiolabeled kinase activity assay
Sequence of Tyrosine-protein kinase Fyn (Homo sapiens) (P06241 2-537 limits assumed): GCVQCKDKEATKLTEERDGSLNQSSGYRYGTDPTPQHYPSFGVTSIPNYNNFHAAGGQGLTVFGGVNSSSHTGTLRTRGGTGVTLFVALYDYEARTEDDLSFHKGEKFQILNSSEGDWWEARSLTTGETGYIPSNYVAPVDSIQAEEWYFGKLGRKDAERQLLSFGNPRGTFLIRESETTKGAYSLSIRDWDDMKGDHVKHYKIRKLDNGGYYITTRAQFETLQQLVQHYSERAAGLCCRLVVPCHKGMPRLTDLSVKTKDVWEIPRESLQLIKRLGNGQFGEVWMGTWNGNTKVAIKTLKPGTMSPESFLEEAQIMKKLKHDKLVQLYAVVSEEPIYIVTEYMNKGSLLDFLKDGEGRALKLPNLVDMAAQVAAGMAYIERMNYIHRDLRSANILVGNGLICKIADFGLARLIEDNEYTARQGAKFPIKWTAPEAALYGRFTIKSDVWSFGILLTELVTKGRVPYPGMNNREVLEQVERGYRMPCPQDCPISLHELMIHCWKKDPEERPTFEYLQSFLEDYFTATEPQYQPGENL

[7] = biological target: MAP kinase-activated protein kinase 2 (Homo sapiens) (UniProt P49137); assay: Inhibition of MAPKAPK2 (unknown origin) at 10 uM after 120 mins P33 radiolabeled kinase activity assay
Sequence of MAP kinase-activated protein kinase 2 (Homo sapiens) (P49137 whole entry, looked up): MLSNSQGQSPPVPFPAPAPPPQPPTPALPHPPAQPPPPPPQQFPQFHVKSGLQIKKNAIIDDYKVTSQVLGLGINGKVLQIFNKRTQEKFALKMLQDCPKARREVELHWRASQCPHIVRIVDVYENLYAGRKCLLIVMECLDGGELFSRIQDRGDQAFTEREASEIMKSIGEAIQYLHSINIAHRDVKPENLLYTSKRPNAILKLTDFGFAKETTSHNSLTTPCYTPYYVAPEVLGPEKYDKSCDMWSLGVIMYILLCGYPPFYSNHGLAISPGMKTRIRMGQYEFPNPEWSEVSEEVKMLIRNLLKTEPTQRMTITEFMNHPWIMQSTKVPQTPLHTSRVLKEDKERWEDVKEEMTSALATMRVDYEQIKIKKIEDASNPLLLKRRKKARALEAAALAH

[8] = biological target: T4, Serine/threonine-protein kinase D2 (Homo sapiens) (UniProt Q9BZL6); assay: Inhibition of PKD2 (unknown origin) at 10 uM after 120 mins P33 radiolabeled kinase activity assay
T4 sequence (whole entry): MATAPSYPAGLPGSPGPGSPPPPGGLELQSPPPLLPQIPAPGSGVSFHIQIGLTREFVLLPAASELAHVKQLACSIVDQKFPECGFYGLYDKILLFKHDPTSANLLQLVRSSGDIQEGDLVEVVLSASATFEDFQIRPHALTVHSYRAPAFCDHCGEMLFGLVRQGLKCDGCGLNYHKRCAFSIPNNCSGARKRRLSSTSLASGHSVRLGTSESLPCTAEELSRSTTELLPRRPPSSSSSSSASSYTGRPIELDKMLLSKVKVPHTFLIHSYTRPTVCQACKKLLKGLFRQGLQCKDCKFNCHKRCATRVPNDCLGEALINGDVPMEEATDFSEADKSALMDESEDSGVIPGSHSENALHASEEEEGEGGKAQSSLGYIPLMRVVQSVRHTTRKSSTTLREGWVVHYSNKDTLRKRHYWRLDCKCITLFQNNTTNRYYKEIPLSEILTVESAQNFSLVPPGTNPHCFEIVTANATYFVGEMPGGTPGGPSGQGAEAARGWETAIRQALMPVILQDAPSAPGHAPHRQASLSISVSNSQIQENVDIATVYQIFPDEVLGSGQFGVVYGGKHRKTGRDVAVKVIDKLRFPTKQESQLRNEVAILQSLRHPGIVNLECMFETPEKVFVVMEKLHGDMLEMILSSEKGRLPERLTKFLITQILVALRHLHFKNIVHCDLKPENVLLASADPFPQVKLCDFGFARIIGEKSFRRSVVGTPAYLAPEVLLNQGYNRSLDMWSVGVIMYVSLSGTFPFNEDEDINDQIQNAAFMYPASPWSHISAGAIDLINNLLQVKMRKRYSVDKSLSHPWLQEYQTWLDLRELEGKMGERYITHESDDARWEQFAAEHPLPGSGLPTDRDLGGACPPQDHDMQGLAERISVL

Structure (SMILES)	inhibition [1] [%]	inhibition [2] [%]	inhibition [3] [%]	inhibition [4] [%]	inhibition [5] [%]	inhibition [6] [%]	inhibition [7] [%]	inhibition [8] [%]
COCCNC(=O)c1ccc2c(c1)nc(-c1cnc(-c3ccc(Cl)cc3)[nH]1)n2CCOC	10.1	13.4	3.77	12.2	28.4	49.1	11.5	19.8
CS(=O)(=O)c1cccc(Nc2nccc(-c3sc(N4CCOCC4)nc3-c3cccc(NS(=O)(=O)c4c(F)cccc4F)c3)n2)c1	30.1	14.1	11	74.6	74.8	99.8	10.7	102
CC(C)(C)c1cc(NC(=O)Nc2ccc(Oc3ccncc3)cc2)no1	1.68	50.7	15.8	80.5	92.8	85.8	11	21.2
